Here are results for 2 molecules from article PMC6152666, “Five New Limonoids from Peels of Satsuma Orange (Citrus reticulata)” (Molecules : A Journal of Synthetic Chemistry and Natural …, 2017).

As a reminder, the melting point is the temperature, or range, at which the solid turns liquid. By IC50 is commonly meant the midpoint of a concentration-inhibition curve. The term viability denotes a read-out of living cells in per cent, often relative to untreated cells.

SMILES strings stand for the structures. “Also recorded” adds a separate entry of the source.

Series [1] has as its system NO production in RAW264.7 mouse macrophages stimulated by lipopolysaccharide (LPS). Description: Inhibitory assay of NO production in LPS-stimulated RAW264.7 macrophages. The format is cell-based. The settings on record: for activity at 1 µM / activity at 3 µM / activity at 10 µM / activity at 30 µM / IC50: Mus musculus, RAW264.7 + LPS 5 μg/mL, 24 h; for activity at 1 µM / activity at 3 µM / activity at 10 µM / activity at 30 µM: vehicle control = 100%, mean ± S.E., n=4; for activity at 1 µM / activity at 3 µM / activity at 10 µM: read-out: Inhibitory Ratio of NO %; for activity at 30 µM: read-out: Inhibitory Ratio of NO % (produced NO ratio). The text has this: Macrophages may be a potential therapeutic target for inflammatory diseases. Activated macrophages release pro-inflammatory mediators, such as NO, reactive oxygen species, interleukin-1β, tumor necrosis factor-α, and other inflammatory mediators, which play important roles in biological defense. However, the overexpression of these mediators had been implicated in diseases such as osteoarthritis, rheumatoid arthritis, and diabetes because the increased production of pro-inflammatory mediators induces severe or chronic inflammation. Isolated compounds (1–12), and N^G-monomethyl-L-arginine, acetate (L-NMMA), which is a NO synthase inhibitor and was used as a positive control, were evaluated for macrophage activation by the inhibitory assay of NO production in RAW264.7 mouse macrophages stimulated by lipopolysaccharide (LPS).
(§1) RAW264.7 cells were grown in D-MEM medium supplemented with 10% FBS and antibiotics (100 units/mL penicillin G sodium salt and 100 μg/mL streptomycin sulfate). Cells were incubated at 37 °C in a 5% CO2 humidified incubator.
An inhibitory assay of NO production was performed according to a method reported previously with slight modifications. Briefly, RAW264.7 cells (5 × 10^4 cells in 100 μL) were seeded into a 96-well microplate and incubated for 24 h. DMEM containing test samples (100 μL total volume, final concentration of 30, 10, 3, or 1 μM) dissolved in DMSO (final concentration 0.2%), and LPS (final concentration of 5 μg/mL), was added. After treatment for 24 h, the supernatant of culture medium was transferred to another 96-well microplate, and then 50 μL of 0.15% N-(1-naphtyl)ethylenediamine in H2O, and 1.5% sulfanilamide in 7.5% phosphoric acid were added. After incubation for 30 min, the absorbance of each well was read at 570 nm using a microplate reader. The optical density of vehicle control cells was assumed to be 100%.

A short description of series [2]: Cytotoxicity assay (MTT) in RAW264.7 cells. Particulars: mouse, RAW264.7 cells, RAW264.7, MTT, 24 h, vehicle control = 100%, mean ± S.E., n=4, read-out: Cell Viability %. The format is cell-based, mouse. The method, then:
as §1
(§2) Cytotoxicity assay was performed according to a method reported previously Briefly, RAW264.7 cells (5 × 10^4 cells in 100 μL) were seeded onto a 96-well microplate and incubated for 24 h. DMEM containing test samples (100 μL total volume, final concentration of 30, 10, 3, or 1 μM) dissolved in DMSO (final concentration 0.2%) was added. After treatment for 24 h, MTT solution was added. After a 3-h incubation, 20% sodium dodecyl sulfate in 0.1 M HCl was added to dissolve the formazan produced in the cells. The absorbance of each well was read at 570 nm using a microplate reader. The optical density of vehicle control cells was assumed to be 100%.

The subject of series [3] is RAW264.7 cells. As to the kind of experiment: Cytotoxicity assay (MTT) in RAW264.7 cells. The format is cell-based, mouse. The settings on record: RAW264.7, 1–30 μM. How it is done:
as §1, §2

`CC(=O)O[C@H]1CC(=O)OC(C)(C)[C@@H]2CC(=O)[C@]3(C)[C@H](CC[C@@]4(C)[C@H](C5=CC(=O)OC5O)OC(=O)[C@H]5O[C@]543)[C@@]12C` (stereo partly shown) [Compound 1, 21,23-dihydro-21-hydroxy-23-oxonomilin] showed a melting point of 200 to 201 °C. In series [1], the activity at 1 µM is 110 ± 2.8%, the activity at 3 µM is 111 ± 1.7%, the activity at 10 µM was determined as 105 ± 2.2% and the activity at 30 µM turned out to be 107 ± 2.5%. For the same molecule, the IC50 in series [1] was over 30 µM. Also, in series [2], the viability at 24 h, 1 µM worked out at 99.1%; the viability at 24 h, 3 µM was 102%; the viability at 24 h, 10 µM is 104%; the viability at 24 h, 30 µM stood at 99.3%.
For the molecule `COC1C=C([C@@H]2OC(=O)[C@H]3O[C@@]34[C@@]2(C)CC[C@@H]2[C@@]3(C)[C@@H](OC(C)=O)CC(=O)OC(C)(C)[C@@H]3CC(=O)[C@]24C)C(=O)O1` (stereo partly shown) [Compound 2, 21,23-dihydro-23-methoxy-21-oxonomilin], the melting point was in the range of 208 to 210 °C. Also, in series [1], the activity at 1 µM came to 95.2 ± 1.6%, the activity at 3 µM is 89.8 ± 2.1%, the activity at 10 µM was determined as 80.4 ± 2.1% and the activity at 30 µM was determined as 39.3 ± 0.5%. In addition, the IC50 in series [1] amounted to 25.4 µM. Also, the “inhibitory effect on NO production (in words)” value in series [1] (RAW264.7 + LPS, 1–30 μM) was “exhibited NO inhibitory activity”. Further, in series [3], the “cytotoxicity (in words)” value is “without cytotoxicity; also recorded: without cytotoxicities”. In series [2], the viability at 24 h, 1 µM is 101%; the viability at 24 h, 3 µM worked out at 98.7%; the viability at 24 h, 10 µM was 99.1%; the viability at 24 h, 30 µM worked out at 94.5%.
